In patent publication EP0750903A1, “Deodorant composition” (Coöperatie Cosun U.A., priority 1995, dated 1997):

Tests used:
Assay in all cases: plate method, inhibition of growth on TSBA medium
Type in all cases: cell-based
Settings in all cases: Table C; 1:50 dilution of an overnight culture; ester conc 400 ug/ml
[1] = system: Staphylococcus epidermis ATCC 155
Description: (§1) The tests reproduced below have been carried out on the basis of four strains which occur in the human armpit flora, viz. Micrococcus luteus ATCC 533, Staphylococcus epidermis ATCC 155, Corynebacterium xerosis ATCC 373 and Corynebacterium minutissimum ATCC 23348 (ATCC = American Type Culture Collection, Maryland 20852, USA).
(§2) The Micrococcus luteus strain has been incubated at 30°C and the other three strains at 37°C. All strains have been tested for purity and then frozen in glycerol in liquid nitrogen. In addition, the strains have been kept on plate (TSBA medium; TSBA = trypton soya broth (medium CM 129 of Oxoid Ltd. + 1% agar), and regularly re-inoculated (at least once a week).
(§3) The abovementioned sucrose-fatty acid esters have been used in concentrations of 400-800-1600-3200-6400 mg/l.
(§4) The plate method was made use of as test method. In this method, the medium was prepared in sucrose-fatty acid solutions in the above concentrations. The plate, which was provided with a TSBA medium (see above), was then inoculated with 100 µl of culture and incubated at the desired temperature (see above). In this connection, use was made of overnight cultures in TSB (= trypton soya broth) which have been inoculated in undiluted and diluted form.
(§5) The inhibition obtained in the test method of the growth of the respective strains is shown with the values 0 (no inhibition) and with 1, 2, 3, 4 or 5 plus signs, where + 0 - 20% inhibition ++ 20 - 40% inhibition +++ 40 - 60% inhibition ++++ 60 - 80% inhibition +++++ 80 - 100% inhibition.
(§6) A blank determination without sucrose-fatty acid solution on TSBA was used as a control (pos. cont. TSBA; see Tables A and B in Examples I and II).

[2] = system: Micrococcus luteus ATCC 533
Description: as §1, §2, §3, §4, §5, §6

[3] = system: Corynebacterium minutissimum ATCC 23348
Description: as §1, §2, §3, §4, §5, §6

[4] = system: Corynebacterium xerosis ATCC 373
Description: as §1, §2, §3, §4, §5, §6

Row | Substance | inhibition of the growth, S.epidermis [1] | inhibition of the growth, M.luteus [2] | inhibition of the growth, C.minutissimum [3] | inhibition of the growth, C.xerosis [4]
1 | sucrose oleate | 0 (0 (no inhibition)) | +++ (+++ 40 - 60% inhibition) | +++++ (+++++ 80 - 100% inhibition) | +++++ (+++++ 80 - 100% inhibition)
2 | sorbitol stearate | 0 (0 (no inhibition)) | 0 (0 (no inhibition)) | +++++ (+++++ 80 - 100% inhibition) | 0 (0 (no inhibition))
3 | lactitol stearate | 0 (0 (no inhibition)) | +++++ (+++++ 80 - 100% inhibition) | +++++ (+++++ 80 - 100% inhibition) | +++++ (+++++ 80 - 100% inhibition)
4 | sucrose behenate | 0 (0 (no inhibition)) | 0 (0 (no inhibition)) | +++++ (+++++ 80 - 100% inhibition) | +++ (+++ 40 - 60% inhibition)
5 | sucrose isostearate | 0 (0 (no inhibition)) | + (+ 0 - 20% inhibition) | +++++ (+++++ 80 - 100% inhibition) | +++++ (+++++ 80 - 100% inhibition)
6 | sucrose hydroxystearate | 0 (0 (no inhibition)) | +++ (+++ 40 - 60% inhibition) | +++++ (+++++ 80 - 100% inhibition) | +++++ (+++++ 80 - 100% inhibition)
